Results taken from patent US20240245703A1, “TOPICAL APPLICATION OF AGENTS TO REDUCE SUN SENSITIVITY AND IMPROVE TOPICAL PHOTODYNAMIC THERAPY” (Wright State University, priority 2021, published 2024).

Tests used:
aSMase [1] = assay: residual aSMase activity after treatment of PC12 cells with 10 micromolar agent; assay type: cell-based; conditions: from Table 1 residual aSMase activity
Method: The data were obtained in a cell-based study by adding 10 micromolar aliquots of the above agents to PC12 cells for the indicated amounts of time (usually 0.5, 6, or 24 hours). Cells were lysed and aSMase activity measured using [choline methyl-14C] sphingomyeline. The amount of aSMase activity following the treatment of the agent was compared to vehicle without any FIASM. […] The data for the listed compounds (n=276) is based on the publication by Kornhuber et al. 2008, including compounds number n=101 combined with an additional set of compounds (n=175) Kornhuber J, Muehlbacher M, Trapp S, Pechmann S, Friedl A, Reichel M, Mühle C, Terfloth L, Groemer T W, Spitzer G M, Liedl K R, Gulbins E, Tripal P. Identification of novel functional inhibitors of acid sphingomyelinase. PLOS One. 2011; 6 (8): e23852. doi: 10.1371/journal.pone.0023852. Epub 2011 Aug. 31. PMID: 21909365; PMCID: PMC3166082. The numbering of compounds is identical to the previous publication for the first 101 compounds. CID=PubChem Compound ID. Set: 1=experimental values from Kornhuber et al. 2008, 2=corrected experimental values of the previously published compounds; 3=newly investigated compounds, Acid/Base: 1=monobase, 2=monoacid, 3=bibase, 4=zwitter. Mean residual activity of ASM is given as % of the corresponding control values.

aSMase [2] = conditions: cited from earlier work
[3] = hairless mice, effect of propylene glycol; cited from earlier work
[4] = test system: PDT-induced immunosuppression; assay: contact hypersensitivity (CHS) to DNFB after PDT, ear thickness; assay type: in vivo, mice; conditions: aSMase-deficient (Smpd1-/-) mice, CPAF intraperitoneal
Text: Five days later the mice underwent sensitization with the neoantigen DNFB. To test for local immunosuppression, DNFB was applied to the PDT-treated area. To test for systemic immunosuppression, the DNFB was applied to back skin at least 2 cm away from the PDT-treated area. Nine days later the mice underwent elicitation reactions to DNFB by application to one ear, with vehicle applied to the other ear. One day later the ear thickness was obtained as a measure of CHS reaction and compared to pre-treatment and vehicle-treated values. Some mice were treated with intraperitoneal CPAF as a positive control for systemic immunosuppression.
For the data shown in FIG. 20, wild-type mice either were injected intraperitoneally with 250 ng CPAF as a positive control for immunosuppression, underwent PDT using 10 J/cm^2 blue light, or received no treatment (SHAM). […] Five days later the mice underwent sensitization with DNFB in PDT-treated (local immunosuppression) or non-PDT-treated skin (systemic immunosuppression). Nine days later the mice underwent elicitation reactions to ears with ear thickness measured at 24 hours. For the data shown in FIG. 21, wild type and aSMase-deficient (Smpd1−/−) mice underwent treatment with CPAF or PDT followed by DNFB sensitization/elicitation reactions as in FIG. 20. The data are mean±SD values. * Denotes statistically significant (P<0.05) changes from sham treatment values using two-way ANOVA.

[5] = test system: human fibroblasts which lack PAFRs; assay: MVP levels in human fibroblasts which lack PAFRs; assay type: cell-based; conditions: human fibroblasts lacking PAFRs, data not shown

Compound: CN(C)CCC=C1c2ccccc2CCc2ccccc21 [Amitriptyline]
- potency relative to imipramine (aSMase [1]): approximately three times more potent than imipramine
- Residual ASM Activity (aSMase [2]; 10 micromolar, PC12 cells, incubation time 0.5 h, % of corresponding control values): 11.7%
- residual aSMase activity after treatment (aSMase [2]; from Kornhuber et al. 2008): 11.7%
- absorption with propylene glycol [3]: enhances absorption

Compound: CCCCCCCCCCCCCCCCOC[C@H](COP(=O)([O-])OCC[N+](C)(C)C)OC(=O)NC [CPAF, carbamoyl-PAF]
- immunosuppression in aSMase KO mice (CHS to DNFB) [4]: resulted in similar levels of immunosuppression in comparison to wild-type mice
- MVP levels in fibroblasts [5]: robust increases in MVP levels in response to PDT but not the PAFR agonist CPAF
